# Experimental data taken from patent US20230079045A1 (priority 2019, published 2023).
# Tested on: IFV A/PR/8/34
# Assay: cytopathic effect (CPE) antiviral test in MDCK cells, IFV A/PR/8/34
# Type: cell-based, influenza virus
# Details: MDCK cells, CPE method, CCK-8 cell viability, 5 days; read-out: EC50(IFV A/PR/8/34)
row,Structure (SMILES),EC50
1,"Cn1cncc1-c1ccc2nc(-c3ccnc(C(=O)N4CCN(C(c5ccccc5)c5nnn(C(F)F)n5)CC4)c3)oc2c1 (racemic) [Compound 160, (R/S)-(4-((2-(difluoromethyl)-2H-tetrazol-5-yl)(phenyl)-13-methyl)piperazin-1-yl)(4-(6-(1-methyl-1H-imidazol-5-yl)benzo[d]oxazol-2-yl)pyridin-2-yl)methanone]",18 nM

# Same assay, conditions: unidentified influenza virus, PR/8, MDCK, 120 h, read-out: EC50(IFV A/PR/8/34)
row,Structure (SMILES),EC50
1,"[2H]C([2H])([2H])C(C(=O)Nc1ccc2oc(-c3ccnc(C(=O)N4CCC(C(c5ccccc5)n5nnc(C)n5)CC4)c3)nc2c1)C([2H])([2H])[2H] (racemic) [Compound 132, 3,3,3-trideuterio-N-[2-[2-[4-[(R/S)-(5-methyltetrazol-2-yl)-phenyl-methyl]piperidine-1-carbonyl]-4-pyridyl]-1,3-benzoxazol-5-yl]-2-(trideuteriomethyl)propanamide]",4 nM
2,"Cc1nnn(C(c2ccccc2)C2CCN(C(=O)c3cc(-c4nc5cc(-c6cnn(C)c6)ccc5o4)ccn3)CC2)n1 (racemic) [Compound 133, (R/S)-(4-(5-(1-methyl-1H-pyrazol-4-yl)benzo[d]oxazol-2-yl)pyridin-2-yl)(4-((5-methyl-2H-tetrazol-2-yl)(phenyl)methyl)piperidin-1-yl)methanone]",33 nM
3,"Cc1nnn(C(c2ccccc2)C2CCN(C(=O)c3cc(-c4nc5cc(NC(=O)C(C)(C)F)ccc5o4)ccn3)CC2)n1 (racemic) [Compound 135, (R/S)-2-fluoro-2-methyl-N-(2-(2-(4-((5-methyl-2H-tetrazol-2-yl)(phenyl)methyl)piperidine-1-carbonyl)pyridin-4-yl)benzo[d]oxazol-5-yl)propanamide]",23 nM
4,"[2H]C([2H])([2H])C(C(=O)Nc1ccc2oc(-c3ccnc(C(=O)N4CCC(C(c5ccccc5)n5nnc(C)n5)CC4)c3)cc2c1)C([2H])([2H])[2H] (racemic) [Compound 137, 3,3,3-trideuterio-N-[2-[2-[4-[(R/S)-(5-methyltetrazol-2-yl)-phenyl-methyl]piperidine-1-carbonyl]-4-pyridyl]benzofuran-5-yl]-2-(trideuteriomethyl)propanamide]",11 nM
5,"Cc1nnn(C(c2ccccc2)C2CCN(C(=O)c3cc(-c4nc5cc(-c6cnsc6)ccc5o4)ccn3)CC2)n1 (racemic) [Compound 140, (R/S)-(4-(5-(isothiazol-4-yl)benzo[d]oxazol-2-yl)pyridin-2-yl)(4-((5-methyl-2H-tetrazol-2-yl)(phenyl)methyl)piperidin-1-yl)methanone]",4 nM
6,"CC(C)(F)C(=O)Nc1ccc2oc(-c3ccnc(C(=O)N4CCN(C(c5ccccc5)c5nnn(C(F)F)n5)CC4)c3)cc2c1 (racemic) [Compound 141, (R/S)—N-(2-(2-(4-((2-(difluoromethyl)-2H-tetrazol-5-yl)(phenyl)methyl)piperazine-1-carbonyl)pyridin-4-yl)benzofuran-5-yl)-2-fluoro-2-methylpropanamide]",16 nM
7,"Cc1nnn(C(c2ccccc2)C2CCN(C(=O)c3cc(-c4cc5cc(NC(=O)C(C)(C)F)ccc5o4)ccn3)CC2)n1 (racemic) [Compound 142, (R/S)-2-fluoro-2-methyl-N-(2-(2-(4-((5-methyl-2H-tetrazol-2-yl)(phenyl)methyl)piperidine-1-carbonyl)pyridin-4-yl)benzofuran-5-yl)propanamide]",23 nM
8,"O=C(c1cc(-c2cc3cc(NC(=O)C4(F)CC4)ccc3o2)ccn1)N1CCN(C(c2ccccc2)c2nnn(C(F)F)n2)CC1 (racemic) [Compound 143, (R/S)—N-(2-(2-(4-((2-(difluoromethyl)-2H-tetrazol-5-yl)(phenyl)methyl)piperazine-1-carbonyl)pyridin-4-yl)benzofuran-5-yl)-1-fluorocyclopropane-1-carboxamide]",13 nM
9,Cc1nnn(C(c2ccccc2)C2CCN(C(=O)c3cc(-c4cc5cc(NC(=O)C6(F)CC6)ccc5o4)ccn3)CC2)n1 (racemic) [Compound 144],7 nM
10,"CC(C)n1cc(-c2ccc3oc(-c4ccnc(C(=O)N5CCN(C(c6ccccc6)c6nnn(C(F)F)n6)CC5)c4)nc3c2)cn1 (racemic) [Compound 146, (R/S)-(4-((2-(difluoromethyl)-2H-tetrazol-5-yl)(phenyl)methyl)piperazin-1-yl)(4-(5-(1-isopropyl-1H-pyrazol-4-yl)benzo[d]oxazol-2-yl)pyridin-2-yl)methanone]",26 nM
11,"Cn1cnc(-c2ccc3oc(-c4ccnc(C(=O)N5CCN(C(c6ccccc6)c6nnn(C(F)F)n6)CC5)c4)nc3c2)c1 (racemic) [Compound 147, (R/S)-(4-((2-(difluoromethyl)-2H-tetrazol-5-yl)(phenyl)methyl)piperazin-1-yl)(4-(5-(1-methyl-1H-imidazol-4-yl)benzo[d]oxazol-2-yl)pyridin-2-yl)methanone]",14 nM
12,"O=C(c1cc(-c2nc3cc(-c4cnn(C5CC5)c4)ccc3o2)ccn1)N1CCN(C(c2ccccc2)c2nnn(C(F)F)n2)CC1 (racemic) [Compound 148, (R/S)-(4-(5-(1-cyclopropyl-1H-pyrazol-4-yl)benzo[d]oxazol-2-yl)pyridin-2-yl)(4-((2-(difluoromethyl)-2H-tetrazol-5-yl)(phenyl)methyl)piperazin-1-yl)methanone]",33 nM
13,"O=C(Nc1ccc2oc(-c3ccnc(C(=O)N4CCN(C(c5ccccc5)c5nnn(CF)n5)CC4)c3)nc2c1)[C@@H]1C[C@@H]1F (mixture of isomers) [Compound 150, (1S,2S)-2-fluoro-N-(2-(2-(4-((S/R)-(2-(fluoromethyl)-2H-tetrazol-5-yl)(phenyl)methyl)piperazine-1-carbonyl)pyridin-4-yl)benzo[d]oxazol-5-yl)cyclopropane-1-carboxamide]",8 nM
14,"O=C(c1cc(-c2nc3cc(-c4cnn(C5COC5)c4)ccc3o2)ccn1)N1CCN(C(c2ccccc2)c2nnn(C(F)F)n2)CC1 (racemic) [Compound 151, (R/S)-(4-((2-(difluoromethyl)-2H-tetrazol-5-yl)(phenyl)methyl)piperazin-1-yl)(4-(5-(1-(oxetan-3-yl)-1H-pyrazol-4-yl)benzo[d]oxazol-2-yl)pyridin-2-yl)methanone]",38 nM
15,"Cn1nccc1-c1ccc2oc(-c3ccnc(C(=O)N4CCN(C(c5ccccc5)c5nnn(C(F)F)n5)CC4)c3)nc2c1 (racemic) [Compound 152, (R/S)-(4-((2-(difluoromethyl)-2H-tetrazol-5-yl)(phenyl)methyl)piperazin-1-yl)(4-(5-(1-methyl-1H-pyrazol-5-yl)benzo[d]oxazol-2-yl)pyridin-2-yl)methanone]",5 nM
16,"Cn1ccc(-c2ccc3oc(-c4ccnc(C(=O)N5CCN(C(c6ccccc6)c6nnn(C(F)F)n6)CC5)c4)nc3c2)n1 (racemic) [Compound 153, (R/S)-(4-((2-(difluoromethyl)-2H-tetrazol-5-yl)(phenyl)methyl)piperazin-1-yl)(4-(5-(1-methyl-1H-pyrazol-3-yl)benzo[d]oxazol-2-yl)pyridin-2-yl)methanone]",7 nM
17,"Cc1c(-c2ccc3oc(-c4ccnc(C(=O)N5CCN(C(c6ccccc6)c6nnn(C(F)F)n6)CC5)c4)nc3c2)cnn1C (racemic) [Compound 154, (R/S)-(4-((2-(difluoromethyl)-2H-tetrazol-5-yl)(phenyl)methyl)piperazin-1-yl)(4-(5-(1,5-dimethyl-1H-pyrazol-4-yl)benzo[d]oxazol-2-yl)pyridin-2-yl)methanone]",5 nM
18,"Cc1n[nH]cc1-c1ccc2oc(-c3ccnc(C(=O)N4CCN(C(c5ccccc5)c5nnn(C(F)F)n5)CC4)c3)nc2c1 (racemic) [Compound 155, (R/S)-(4-((2-(difluoromethyl)-2H-tetrazol-5-yl)(phenyl)methyl)piperazin-1-yl)(4-(5-(3-methyl-1H-pyrazol-4-yl)benzo[d]oxazol-2-yl)pyridin-2-yl)methanone]",1 nM
19,"Cc1n[nH]c(C)c1-c1ccc2oc(-c3ccnc(C(=O)N4CCN(C(c5ccccc5)c5nnn(C(F)F)n5)CC4)c3)nc2c1 (racemic) [Compound 156, (R/S)-(4-((2-(difluoromethyl)-2H-tetrazol-5-yl)(phenyl)methyl)piperazin-1-yl)(4-(5-(3,5-dimethyl-1H-pyrazol-4-yl)benzo[d]oxazol-2-yl)pyridin-2-yl)methanone]",7 nM
20,"Cc1cn(-c2ccc3oc(-c4ccnc(C(=O)N5CCN(C(c6ccccc6)c6nnn(C(F)F)n6)CC5)c4)nc3c2)cn1 (racemic) [Compound 158, (R/S)-(4-((2-(difluoromethyl)-2H-tetrazol-5-yl)(phenyl)methyl)piperazin-1-yl)(4-(5-(4-methyl-1H-imidazol-1-yl)benzo[d]oxazol-2-yl)pyridin-2-yl)methanone]",3 nM
21,"O=C(c1cc(-c2nc3cc(-c4cnn(C(F)(F)F)c4)ccc3o2)ccn1)N1CCN(C(c2ccccc2)c2nnn(C(F)F)n2)CC1 (racemic) [Compound 161, (R/S)-(4-((2-(difluoromethyl)-2H-tetrazol-5-yl)(phenyl)methyl)piperazin-1-yl)(4-(5-(1-(trifluoromethyl)-1H-pyrazol-4-yl)benzo[d]oxazol-2-yl)pyridin-2-yl)methanone]",20 nM
22,"Cc1ncc(-c2ccc3oc(-c4ccnc(C(=O)N5CCN(C(c6ccccc6)c6nnn(C(F)F)n6)CC5)c4)nc3c2)n1C (racemic) [Compound 162, (R/S)-(4-((2-(difluoromethyl)-2H-tetrazol-5-yl)(phenyl)methyl)piperazin-1-yl)(4-(5-(1,2-dimethyl-1H-imidazol-5-yl)benzo[d]oxazol-2-yl)pyridin-2-yl)methanone]",3 nM
23,"[2H]C([2H])([2H])C(C(=O)Nc1ccc2oc(-c3ccnc(C(=O)N4CCC(C(c5ccccc5)n5nnc(C(F)F)n5)CC4)c3)nc2c1)C([2H])([2H])[2H] (racemic) [Compound 163, 3,3,3-tideuterio-N-[2-[2-[4-[(R/S)-[5-(difluoromethyl)tetrazol-2-yl]-phenyl-methyl]piperidine-1-carbonyl]-4-pyridyl]-1,3-benzoxazol-5-yl]-2-(trideuteriomethyl)propanamide]",8 nM
